Experimental findings from patent US20180153995A1, “USE OF ANTIMICROBIAL POLYMERS FOR RE-SENSITIZATION OF MICROORGANISMS UPON EMERGENCE OF RESISTANCE TO ANTI-MICROBIAL AGENTS” (Technion Research & Development Foundation Limited, priority 2008, published 2018) are described below.

Where two headings read alike, the source gives them in different places.

The subject of experiment [1] is P. mirabilis 1285. In kind it is cell-based, Proteus mirabilis.
Experiment [2] deals with P. mirabilis 1285. It is filed as cell-based, Proteus mirabilis. The following applies: no polymer (None), Table 12. The method, then: (§1) MICs were determined by microdilution susceptibility testing in 96-well plates (by Nunc) using inocula of 10^5 bacteria per ml. Cell populations were evaluated by optical density measurements at 620 nm and were calibrated against a set of standards. Hundred (100) μl of a bacterial suspension were added to 100 μl of culture medium (control) or to 100 μl of culture medium containing various polymer concentrations in 2-fold serial dilutions. Inhibition of proliferation was determined by optical density measurements at 620 nm after an incubation period of 24 hours at 37° C.
(§2) 100 μl of a bacterial suspension were added to 100 μl of culture medium (control) or to 100 μl of culture medium containing various antibiotic and C14(9-ene)KKNC12KNH2 (SEQ ID NO: 5) concentrations in 2-fold serial dilutions. Inhibition of proliferation was determined by optical density measurements at 620 nm after an incubation period of 24 hours at 37° C.

The subject of another experiment is P. aeruginosa 8732. Put plainly: Antibiotic MIC by microdilution with or without sub-MIC polymer. As to conditions: P. aeruginosa 8732. It is filed as cell-based, Pseudomonas aeruginosa. The procedure: as §1
Inhibition of proliferation was determined by optical density measurements at 620 nm after an incubation period of 24 hours at 37° C.
Background: In broth dilution the organism is exposed to a series of concentrations in liquid medium.

In a further experiment the test system is S. aureus 17314. The description is as above. The following applies: S. aureus 17314. It is filed as cell-based, Staphylococcus aureus.
In another experiment the test system is E. coli 16329. It is filed as cell-based, Escherichia coli. The following applies: E. coli U-16329; for Antibiotic MIC: +½ MIC C12K(NC8K)5NH2; for Antibiotic MIC in presence of C12K(NC8K)7NH2 (SEQ ID NO: 4), +½ MIC: polymer at ½ of its MIC. The procedure: as §1, §2
A further experiment deals with S. aureus 15877. Put plainly: Antibiotic MIC by microdilution with or without sub-MIC polymer. It is filed as cell-based, Staphylococcus aureus.
For experiment [3], the system named is E. coli N282 (L4 mutation). In kind it is cell-based, Escherichia coli. As to conditions: E. coli N282 L4 mutation.
For the next experiment, the system named is MRSA 15852. It is filed as cell-based, Staphylococcus aureus. The following applies: S. aureus 15852. The method, then: The fractionary inhibitory (FIC) concentration index for combinations of two antimicrobial agents was calculated as follows: FIC index=FICA+FICB=A/MICA+B/MICB where A and B are the MIC values of agent A and agent B in the combination, MICA and MICB are the MICs of agent A and agent B alone, and FICA and FICB are the FICs of agent A and agent B.
The FIC indexes were interpreted as follows: less than 0.5 indicates a clear re-sensitizing effect; from 0.5 to 4 indicates a marginal or null re-sensitizing effect; and over 4 indicates antagonism.

Setting [4] is: +¼ MIC (1.6 μM) C12K(KNC12K)2NH2.
[5] abbreviates: +½ MIC (3.12 μM) C12K(KNC12K)2NH2.
[6] abbreviates: +⅓ MIC (2.1 μM) C12K(KNC12K)2NH2.
Where [7] appears, read: +¼ MIC (1.6 μM) C16(9-ene)KKNC12KNH2.
The mark [8] stands for this setting: +½ MIC (3.12 μM) C16(9-ene)KKNC12KNH2.
Setting [9] is: +⅓ MIC (2.1 μM) C16(9-ene)KKNC12KNH2.
The mark [10] stands for this setting: +¼ MIC (1.6 μM) C14(9-ene)KKNC12KNH2.
[11] abbreviates: +½ MIC (3.12 μM) C14(9-ene)KKNC12KNH2.
The mark [12] stands for this setting: +⅓ MIC (2.1 μM) C14(9-ene)KKNC12KNH2.
Where [13] appears, read: +¼ MIC (1.6 μM) C12(5-ene)KKNC12KNH2.
[14] abbreviates: +½ MIC (3.12 μM) C12(5-ene)KKNC12KNH2.
[15] abbreviates: +⅓ MIC (2.1 μM) C12(5-ene)KKNC12KNH2.

Protocol for S. aureus 15877: MICs were determined by microdilution susceptibility testing in 96-well plates (Nunc) using inocula of 10^5 bacteria per ml. One hundred (100) μl of a bacterial suspension were added to 100 μl of culture medium (control) or to 100 μl of culture medium containing various antibiotic and C12(5-ene)KKNC12KNH2 (SEQ ID NO: 2) concentrations in 2-fold serial dilutions. Inhibition of proliferation was determined by optical density measurements at 620 nm after an incubation period of 24 hours at 37° C.

Turning to gentamicin, the “Antibiotic MIC” value turned out to be 32 µg/mL with P. mirabilis 1285 [1] (setting [4]); 32 µg/mL with P. mirabilis 1285 [1] (setting [5]); 32 µg/mL in the experiment on P. mirabilis 1285 [1] (setting [6]); 32 µg/mL in the experiment with P. mirabilis 1285 [2]; 4 µg/mL in the experiment with P. aeruginosa 8732 (setting [7]); 4 µg/mL with P. aeruginosa 8732 (setting [8]). In addition, the “Antibiotic MIC” value in the experiment on P. aeruginosa 8732 (setting [9]) worked out at 4 µg/mL; with P. aeruginosa 8732 (no polymer (None), Table 10), 4 µg/mL; in the experiment with S. aureus 17314 (setting [8]), 64 µg/mL.

On to `CN(C)[C@@H]1C(O)=C(C(N)=O)C(=O)[C@@]2(O)C(O)=C3C(=O)c4c(O)cccc4[C@@](C)(O)[C@H]3C[C@@H]12` [Tetracycline, tetracycline], for which the “Antibiotic MIC” value is 0.25 µg/mL with S. aureus 17314 (setting [4]); 0.25 to 0.5 µg/mL in the experiment on S. aureus 17314 (+¼ MIC (1.6 μM) C12KKNC12KNH2); 0.25 µg/mL in the experiment on S. aureus 17314 (setting [10]); 0.25 µg/mL with S. aureus 17314 (setting [5]); 0.25 to 0.5 µg/mL in the experiment on S. aureus 17314 (+½ MIC (3.12 μM) C12KKNC12KNH2); 0.25 µg/mL with S. aureus 17314 (setting [11]). For the same compound, the “Antibiotic MIC” value is 0.5 µg/mL in the experiment on S. aureus 17314 (setting [6]); 0.25 to 0.5 µg/mL in the experiment with S. aureus 17314 (+⅓ MIC (2.1 μM) C12KKNC12KNH2); 0.25 µg/mL with S. aureus 17314 (setting [12]); 0.25 µg/mL with S. aureus 17314 (no polymer (None), Table 9); 0.25 µg/mL with S. aureus 17314 (no polymer (None), Table 10); 0.25 to 0.5 µg/mL with S. aureus 17314 (no polymer (None), Table 11). For the same compound, the “Antibiotic MIC” value is 0.25 to 0.5 µg/mL with S. aureus 17314 (no polymer (None), Table 12); 64 µg/mL in the experiment with E. coli 16329; 1 µg/mL in the experiment on S. aureus 15877 (setting [13]); 0.5 to 1 µg/mL with S. aureus 15877 (setting [14]); 1 µg/mL in the experiment with S. aureus 15877 (setting [15]); 1 µg/mL with S. aureus 15877 (no polymer (None), Table 8). Moreover, the “Antibiotic MIC in presence of C12K(NC8K)7NH2 (SEQ ID NO: 4), +½ MIC” value in the experiment with E. coli 16329 is 32 to 64 µg/mL.

As for `CC[C@H]1OC(=O)[C@H](C)[C@@H](O[C@H]2C[C@@](C)(OC)[C@@H](O)[C@H](C)O2)[C@H](C)[C@@H](O[C@@H]2O[C@H](C)C[C@H](N(C)C)[C@H]2O)[C@](C)(O)C[C@@H](C)C(=O)[C@H](C)[C@@H](O)[C@]1(C)O` [Erythromycin, erythromycin], the “Antibiotic MIC” value in experiment [3] (+¼ MIC C12K(NC8K)5NH2) was 512 µg/mL; in experiment [3] (+¼ MIC C12K(NC8K)7NH2) it was 512 µg/mL; in experiment [3] (+½ MIC C12K(NC8K)5NH2), 8 to 16 µg/mL; in experiment [3] (+⅓ MIC C12K(NC8K)7NH2) it was 512 µg/mL; in experiment [3] (no OAK, Table 18) it was 512 µg/mL; in experiment [3] (no OAK, Table 19) it was 512 µg/mL. In addition, the “Antibiotic MIC” value in the experiment on MRSA 15852 (setting [13]), with MRSA 15852 (+¼ MIC (1.6 μM) C12KKNC12KNH2), in the experiment with MRSA 15852 (setting [14]), in the experiment on MRSA 15852 (+½ MIC (3.12 μM) C12KKNC12KNH2), with MRSA 15852 (setting [15]) and in the experiment with MRSA 15852 (+⅓ MIC (2.1 μM) C12KKNC12KNH2) was above 512 µg/mL throughout. Also, the “Antibiotic MIC” value in the experiment with MRSA 15852 (no polymer (None), Table 8) was above 512 µg/mL; in the experiment on MRSA 15852 (no polymer (None), Table 11) it was above 512 µg/mL; in the experiment on S. aureus 17314 (setting [4]) it was 1 µg/mL; in the experiment on S. aureus 17314 (+¼ MIC (1.6 μM) C12KKNC12KNH2) it was 1 µg/mL; in the experiment with S. aureus 17314 (setting [10]) it was 1 µg/mL; in the experiment on S. aureus 17314 (setting [7]), 1 µg/mL. The “Antibiotic MIC” value in the experiment with S. aureus 17314 (setting [5]) is 0.5 to 1 µg/mL; in the experiment with S. aureus 17314 (+½ MIC (3.12 μM) C12KKNC12KNH2), 1 µg/mL; in the experiment with S. aureus 17314 (setting [11]), 1 µg/mL; with S. aureus 17314 (setting [8]) it was 0.5 µg/mL; with S. aureus 17314 (setting [6]), 0.5 to 1 µg/mL; in the experiment with S. aureus 17314 (+⅓ MIC (2.1 μM) C12KKNC12KNH2) it was 1 µg/mL. Besides, the “Antibiotic MIC” value was 1 µg/mL with S. aureus 17314 (setting [12]); 1 µg/mL with S. aureus 17314 (setting [9]); 1 µg/mL in the experiment with S. aureus 17314 (no polymer (None), Table 9); 1 µg/mL in the experiment with S. aureus 17314 (no polymer (None), Table 10); 1 µg/mL with S. aureus 17314 (no polymer (None), Table 11); 1 µg/mL in the experiment with S. aureus 17314 (no polymer (None), Table 12). Besides, the “Antibiotic MIC” value was 32 µg/mL in the experiment on E. coli 16329; above 512 µg/mL with S. aureus 15877 (setting [13]); above 512 µg/mL in the experiment with S. aureus 15877 (setting [14]); above 512 µg/mL in the experiment on S. aureus 15877 (setting [15]); above 512 µg/mL in the experiment with S. aureus 15877 (no polymer (None), Table 8). The “Antibiotic MIC in presence of C12K(NC8K)7NH2 (SEQ ID NO: 4), +½ MIC” value with E. coli 16329 turned out to be 16 µg/mL.
